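Tested at 5 concentrations; 48 h exposure; 96-well plates; endpoints linearly interpolated, else capped at highest concentration. GI50 is the concentration that inhibits growth by half.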 Activity calls are given as the source filed them. Rule as the data show it: active = GI50 up to about 1.1 µM and inactive = higher.
Columns and labels:
Experiment in all cases: DTP human tumour cell line panel, 48 h
MDA-MB-231 = test system: MDA-MB-231
ACHN = test system: ACHN
OVCAR-5 = test system: OVCAR-5
PC-3 = test system: PC-3
MOLT-4 = test system: MOLT-4
A549 = test system: A549
T47D = test system: T47D
EKVX = test system: EKVX
SNB-19 = test system: SNB-19
SF-268 = test system: SF-268
U-251 = test system: U-251
NCI-H226 = test system: NCI-H226
NCI-H23 = test system: NCI-H23
Hs-578T = test system: Hs-578T
HT-29 = test system: HT-29
SR = test system: SR
SNB-75 = test system: SNB-75
COLO 205 = test system: COLO 205
MCF7 = test system: MCF7

Row | SMILES | GI50 (MDA-MB-231) | GI50 (ACHN) | GI50 (OVCAR-5) | GI50 (PC-3) | GI50 (MOLT-4) | GI50 (A549) | GI50 (T47D) | GI50 (EKVX) | GI50 (SNB-19) | GI50 (SF-268) | GI50 (U-251) | GI50 (NCI-H226) | GI50 (NCI-H23) | GI50 (Hs-578T) | GI50 (HT-29) | GI50 (SR) | GI50 (SNB-75) | GI50 (COLO 205) | GI50 (MCF7)
1 | CN(C)CCNc1ccccn1 | > 100 µM (inactive) | > 100 µM (inactive) | > 100 µM (inactive) | > 100 µM (inactive) | > 100 µM (inactive) | > 100 µM (inactive) | > 100 µM (inactive) | > 100 µM (inactive) | > 100 µM (inactive) | > 100 µM (inactive) | > 100 µM (inactive) | > 100 µM (inactive) | > 100 µM (inactive) | > 100 µM (inactive) | > 100 µM (inactive) | > 100 µM (inactive) |  |  | 
2 | CN1CN(c2ccccc2)C2(CCN(CC(C)(c3ccc(F)cc3)C3OCCCO3)CC2)C1=O (stereo not drawn) | 24.2 µM (inactive) | 17.7 µM (inactive) | 8.69 µM (inactive) | 17.4 µM (inactive) | 9.71 µM (inactive) | 25.9 µM (inactive) | 17.7 µM (inactive) | 16.7 µM (inactive) | 17.3 µM (inactive) | 17.8 µM (inactive) | 12.8 µM (inactive) | 18.9 µM (inactive) | 14.9 µM (inactive) |  | 10.6 µM (inactive) | 10 µM (inactive) | 18.7 µM (inactive) | 17.7 µM (inactive) | 13 µM (inactive)
3 | NC1CC2NC3CCCCC3NC2CC1N (stereo not drawn) | 61.7 µM (inactive) | 24.9 µM (inactive) | 42.7 µM (inactive) | 50.9 µM (inactive) | 24.9 µM (inactive) | 58.3 µM (inactive) |  | 25.4 µM (inactive) | 36.2 µM (inactive) | 50.8 µM (inactive) | 28 µM (inactive) | 48.9 µM (inactive) | 32.4 µM (inactive) | 27.9 µM (inactive) | 27.4 µM (inactive) | 29.2 µM (inactive) | 25.1 µM (inactive) | 42.5 µM (inactive) | 0.776 µM (active)
4 | COc1cc(OC)cc(Oc2nc3cc(F)c(F)cc3nc2-c2ccccc2)c1 |  | > 100 µM (inactive) | > 100 µM (inactive) | > 100 µM (inactive) | > 100 µM (inactive) | > 100 µM (inactive) | > 100 µM (inactive) | > 100 µM (inactive) | > 100 µM (inactive) | > 100 µM (inactive) | > 100 µM (inactive) | > 100 µM (inactive) | > 100 µM (inactive) | > 100 µM (inactive) | > 100 µM (inactive) | > 100 µM (inactive) | > 100 µM (inactive) | > 100 µM (inactive) | > 100 µM (inactive)
5 | O=C1C=CC=C/C1=C1\N=C(c2ccccc2OCC(=O)c2ccccc2)SS1 | > 100 µM (inactive) | > 100 µM (inactive) | > 100 µM (inactive) |  | 22.6 µM (inactive) | > 100 µM (inactive) |  | > 100 µM (inactive) | > 100 µM (inactive) | 58.1 µM (inactive) | 44.8 µM (inactive) | > 100 µM (inactive) | > 100 µM (inactive) | 26.9 µM (inactive) | > 100 µM (inactive) |  | 19.6 µM (inactive) |  | > 100 µM (inactive)
6 | CC(=O)c1ccc2c(c1)oc(=O)n2CCN1CCCCC1 | > 100 µM (inactive) | > 100 µM (inactive) | > 100 µM (inactive) | > 100 µM (inactive) | > 100 µM (inactive) |  |  | > 100 µM (inactive) | > 100 µM (inactive) | > 100 µM (inactive) | > 100 µM (inactive) | > 100 µM (inactive) | > 100 µM (inactive) | 93.5 µM (inactive) | > 100 µM (inactive) | > 100 µM (inactive) |  | > 100 µM (inactive) | > 100 µM (inactive)
7 | CCOC(=O)C(C)(C)/C=C\C(Cl)=C(Cl)Cl | > 100 µM (inactive) | > 100 µM (inactive) | > 100 µM (inactive) | > 100 µM (inactive) | > 100 µM (inactive) | > 100 µM (inactive) |  | > 100 µM (inactive) | > 100 µM (inactive) | > 100 µM (inactive) |  | > 100 µM (inactive) | > 100 µM (inactive) | > 100 µM (inactive) | > 100 µM (inactive) | > 100 µM (inactive) | > 100 µM (inactive) | > 100 µM (inactive) | 
8 | CCOC1(OCC)N=C(N)C2(C#N)C3(C(=O)N(C(C)C)N=C3C)C12C#N (stereo not drawn) | > 100 µM (inactive) | > 100 µM (inactive) | > 100 µM (inactive) | > 100 µM (inactive) | > 100 µM (inactive) | > 100 µM (inactive) | > 100 µM (inactive) | > 100 µM (inactive) | > 100 µM (inactive) | > 100 µM (inactive) | > 100 µM (inactive) | > 100 µM (inactive) | > 100 µM (inactive) |  | > 100 µM (inactive) | 45.4 µM (inactive) | > 100 µM (inactive) | > 100 µM (inactive) | > 100 µM (inactive)
9 | COc1ccc2nc3c(C)cc4ccccc4n3c2c1 |  | 47.3 µM (inactive) | > 100 µM (inactive) | 46.3 µM (inactive) | 23 µM (inactive) | 41.1 µM (inactive) | > 100 µM (inactive) | 19.2 µM (inactive) | > 100 µM (inactive) | 86.9 µM (inactive) | 44.7 µM (inactive) | > 100 µM (inactive) | > 100 µM (inactive) | 18 µM (inactive) | 55 µM (inactive) | 50.2 µM (inactive) | 28.2 µM (inactive) | > 10 µM (inactive) | 51.5 µM (inactive)
10 | CN1C(=O)C(C#N)C2C[C@@]1(C)Oc1ccccc12 (stereo partly drawn) | > 100 µM (inactive) | > 100 µM (inactive) | > 100 µM (inactive) | > 100 µM (inactive) | 7.29 µM (inactive) | > 100 µM (inactive) |  | > 100 µM (inactive) | > 100 µM (inactive) | > 100 µM (inactive) | > 100 µM (inactive) | > 100 µM (inactive) | > 100 µM (inactive) | > 100 µM (inactive) | > 100 µM (inactive) |  | > 100 µM (inactive) | > 100 µM (inactive) | > 100 µM (inactive)
11 | CC(C)=NNC1=NC(C)(C)P(=O)(NNc2ncccn2)S1 (stereo not drawn) | > 100 µM (inactive) | > 100 µM (inactive) | > 100 µM (inactive) | > 100 µM (inactive) | > 100 µM (inactive) | > 100 µM (inactive) | > 100 µM (inactive) | > 100 µM (inactive) | > 100 µM (inactive) | > 100 µM (inactive) | > 100 µM (inactive) |  | > 100 µM (inactive) | > 100 µM (inactive) | > 100 µM (inactive) |  |  |  | > 100 µM (inactive)
12 | N#Cc1nc(-c2ccccn2)oc1N | > 100 µM (inactive) | > 100 µM (inactive) | > 100 µM (inactive) | > 100 µM (inactive) | > 100 µM (inactive) |  |  | > 100 µM (inactive) | > 100 µM (inactive) | > 100 µM (inactive) | > 100 µM (inactive) | > 100 µM (inactive) | > 100 µM (inactive) | > 100 µM (inactive) | > 100 µM (inactive) | > 100 µM (inactive) |  | > 100 µM (inactive) | > 100 µM (inactive)
13 | O=C1OCOC2(CCCC2)C1c1ccccc1 (stereo not drawn) | > 100 µM (inactive) | > 100 µM (inactive) | > 100 µM (inactive) | > 100 µM (inactive) | > 100 µM (inactive) | > 100 µM (inactive) | > 100 µM (inactive) | > 100 µM (inactive) | > 100 µM (inactive) | > 100 µM (inactive) | > 100 µM (inactive) | > 100 µM (inactive) | > 100 µM (inactive) | > 100 µM (inactive) | > 100 µM (inactive) | > 100 µM (inactive) | > 100 µM (inactive) | > 100 µM (inactive) | 
14 | CC(=O)/N=C1\N/C(=C/c2cc([N+](=O)[O-])ccc2O)CN1C | > 100 µM (inactive) | > 100 µM (inactive) | > 100 µM (inactive) | > 100 µM (inactive) | 6.31 µM (inactive) | > 100 µM (inactive) | > 100 µM (inactive) | > 100 µM (inactive) | > 100 µM (inactive) |  | > 100 µM (inactive) | > 100 µM (inactive) | > 100 µM (inactive) |  | > 100 µM (inactive) |  | > 100 µM (inactive) | > 100 µM (inactive) | > 100 µM (inactive)
15 | Cc1nn(-c2ccccc2)c2nc3c(c(C)nn3-c3ccccc3)c(-c3ccc(C(F)(F)F)cc3)c12 | > 100 µM (inactive) | > 100 µM (inactive) | > 100 µM (inactive) | > 100 µM (inactive) | > 100 µM (inactive) | > 100 µM (inactive) | > 100 µM (inactive) | > 100 µM (inactive) | 96.2 µM (inactive) | 44.7 µM (inactive) | > 100 µM (inactive) | > 100 µM (inactive) | > 100 µM (inactive) |  | 52.8 µM (inactive) |  | 39.4 µM (inactive) | > 100 µM (inactive) | > 100 µM (inactive)
16 | COC(=O)CC(=O)OC1C[C@@H]2CCC3C(C)(C)CCC[C@]3(C)C23CC[C@@]1(C)C3 (stereo partly drawn) |  | 17.5 µM (inactive) | 16.1 µM (inactive) |  | 53.8 µM (inactive) | 24.5 µM (inactive) |  |  | 17.4 µM (inactive) | 18.5 µM (inactive) | 17.4 µM (inactive) | 28.6 µM (inactive) | 18.4 µM (inactive) |  | 19.2 µM (inactive) | > 100 µM (inactive) | 27.9 µM (inactive) | 18.6 µM (inactive) | 
17 | COc1ccc(Nc2nc(N)c(C(=O)c3ccccc3)s2)cc1 |  | 7.67 µM (inactive) | 19.5 µM (inactive) | 0.0396 µM (active) | < 0.0238 µM (active) | 0.152 µM (active) | 40.2 µM (inactive) | 0.142 µM (active) | 0.037 µM (active) | 0.839 µM (active) | 0.0302 µM (active) | 0.0935 µM (active) | 0.232 µM (active) | 0.0826 µM (active) | 0.0162 µM (active) | < 0.01 µM (active) | 0.0258 µM (active) | 0.0398 µM (active) | 0.54 µM (active)
